{
  "source": "patent US20220233523A1",
  "about": "“ANTIBIOTIC POTENTIATION FOR NONTUBERCULOUS MYCOBACTERIAL DISEASE” (priority 2019, published 2022)",
  "type_in_all_cases": "cell-based, Mycobacterium avium subsp hominissuis 104 (MAH104)",
  "key": {"[1]": {"tested_on": "M. avium 104 static biofilms", "test": "Static biofilm formation in the presence of metabolites (crystal violet)", "details": "for biofilm formation with 1% and 0.5% of fatty acid: 7H9, 7 days at 37° C., crystal violet", "method": "Static biofilms were used in the present study as described previously (Rose S J, Bermudez L E., Infection and Immunity 2014; 82:405-12). Briefly, mycobacteria were taken from 7H10 agar plates and resuspended in deionized water (10^9 of colony forming units/ml; CFU/ml). The bacterial suspension was then washed 3 times with deionized water to remove any remaining of 7H10 media (3500 rpm for 20 minutes at 20° C.). After washing, the MAH104 were resuspended in 7H9 medium without any carbon sources (OADC, glycerol, tween 20 and tween 80) (non-supplemented 7H9) and suspensions were left alone to allow clumped bacteria to settle. The top half of the suspension was transferred to new tube and adjusted to 1×10^8 CFU/ml, using visual turbidity and optical density. Suspensions were inoculated in 96-well polystyrene plates (BD, Franklin Lakes, N.J.) (100 μl for each well [or 10^7 bacteria per well]) and biofilms were formed at 37° C. for 7 days or for 14 days when indicated. […] The raw O.D. at 570 nm values were discounted from O.D. 570 nm average of blank wells (wells with only 7H9 media).\n(§1) Assays with biofilms incubated with propionic acid, butyric acid, and glycerol were performed to test whether these metabolites affect the formation of biofilms. All the experiments were made in non-supplemented 7H9. The effect of these metabolites was evaluated during biofilm formation, in pre-established biofilms and in M. avium cells pre-attached to polystyrene. To evaluate the effect of targeted metabolites during biofilm formation, mycobacteria suspensions were prepared and inoculated in 96 wells polystyrene plates, as already described, and biofilms were formed in the presence or not of the short-chain fatty acids at different concentrations (1%, 0.5%, 0.1%, 0.05% and 0.01%). For glycerol, only 0.2% was used. The biofilms were formed in 7H9 media at 37° C. for 7 days. For pre-established biofilms, MAH104 was again inoculated in 96 wells plates and biofilms were formed as described herein. […] It was also evaluated whether these metabolites could promote the growth of MAH104 cells present in biofilms through the measurement of […] every 24 hours. Finally, mycobacteria suspension with low density made in 7H9 broth (containing 1×10^6 bacteria/ml) were seeded in 96 wells polystyrene plates and incubated for 7 days at 37° C. […] The growth of pre-attached bacterial cells was followed every 24 hours through O.D.595 nm. The biofilm formation was evaluated by crystal violet.\nThe next step was to evaluate the capacity of tested substrates to promote the growth of mycobacteria cells that are present in biofilms. […] MAH 104 cells in the presence of non-supplemented 7H9 were used as a negative control. […]"}, "[2]": {"tested_on": "pre-established MAH104 biofilms", "test": "Effect of metabolites on pre-established biofilms", "details": "for O.D.570 nm of pre-established biofilms (biofilm formation): 7 days at 37° C. with metabolite, 7H9 0.332±0.073", "method": "as §1\nNext, the effect of short-chain fatty acids and glycerol in pre-established biofilms was tested. In parallel, the O.D.595 nm of pre-established biofilm cultures were also measured for 7 days in order to check whether the bacterial cells in biofilm multiplied in the presence of the targeted substrates. […] In addition, we observed a significant increase in the biofilm formation (O.D.570 nm values) when mycobacteria biofilm was incubated with glycerol (7H9, O.D.570 nm=0.332±0.073; glycerol, O.D.570 nm=1.562±0.1751; P=0.0029)."}, "[3]": {"tested_on": "MAH (strain 104) in established biofilms", "test": "Treatment of established MAH biofilms with antibiotics and metabolites (CFU)", "details": "for killing capacity of clarithromycin: established M. avium 104 biofilms, 72 hours, FIG. 4A-D; for CFU/ml at 14 days: established biofilms, clarithromycin 16 μg/ml, amikacin 4 μg/ml, 0.05% propionic or butyric acid, 0.2% glycerol, none 4.2 +/− 0.5 × 10^8", "method": "To assess the antibiotic tolerance of MAH biofilms to amikacin (4 μg/ml) and clarithromycin (16 μg/ml), biofilms were formed for 14 days as described herein. […] As a negative control, biofilms were incubated only with non-supplemented 7H9 without any antibiotics. […] Subsequently, 100 μl of 0.02% of Triton X-100 (final concentration 0.01%) was added to the established biofilms to mix, dilute and perform CFU analysis with the entire population of biofilms (attached and unattached).\nMycobacteria biofilms were first established and then treated or not treated with antibiotics. In parallel, biofilms were also co-treated with antibiotics and the targeted metabolites."}, "sessile MAH104 cells": {"tested_on": "sessile MAH104 cells", "test": "Growth and biofilm formation of pre-attached (sessile) cells in nutrient-limited media", "details": "for O.D.570 nm of sessile MAH104 (crystal violet, biofilm formation): 0.05% fatty acids in non-supplemented 7H9, 7 days, blank 0.091±0.007; for growth of sessile forms: 0.2% glycerol or 0.05% fatty acids in non-supplemented 7H9, 7 days at 37° C., O.D.595 nm", "method": "as §1\nLow mycobacterial cells density (10^6/ml) resuspended in non-supplemented 7H9 media were inoculated in 96-well plates and incubated for 7 days at 37° C. to allow the bacteria to attach into polystyrene. The supernatant was discarded to remove planktonic cells and pre-attached bacterium was incubated for 7 days in nutrient-limited media (non-supplemented 7H9). […] The growth of sessile mycobacteria was followed by O.D.595 nm measurement and biofilm formation was determined through crystal violet (O.D.570 nm), since the multiplication of bacteria cells is linked with the formation of biofilms. No growth was observed when sessile MAH104 cells were cultivated in non-supplemented 7H9 broth. […] It is also important to highlight that the O.D.570 nm value for sessile MAH104 forms incubated with non-supplemented 7H9 (O.D.570 nm=0.11±0.039) had no significant difference in comparison with the blank (O.D.570 nm=0.091±0.007) (P=0.37), showing no biofilm formation. […] FIG. 3A-D."}, "[4]": {"tested_on": "planktonic cultures of MAH104", "test": "Growth of planktonic cultures in non-supplemented 7H9 with metabolites", "details": "propionic acid and butyric acid at 0.05%, glycerol 0.2%; 12 days at 37° C.", "method": "MAH104 from 7H10 agar was used to make bacterial suspension in deionized water (10^9 CFU/ml) and then the suspension was centrifuged three times to wash the bacteria cells (3500 rpm for 20 minutes at 20° C.). After washing step, the bacterial suspensions were resuspended in 7H9 medium and suspensions were left alone to allow clumped bacteria to settle. The top half of the suspension was transferred to new tube and adjusted to 1×10^8 CFU/ml, using visual turbidity and optical density. […] These cultures were incubated at 37° C. for 12 days and the O.D.595 nm was measured at each 72 hours.\nWe determined the optimal concentration for the growth of MAH104 in non-supplemented 7H9 media since the amounts of these metabolites available in Biolog plates are unknown. […] The experiments were made in non-supplemented 7H9 medium (without any carbon sources: no OADC, no glycerol, and no tween 20 or 80) (FIG. 2A-C), which is the condition applied in the biofilms assay."}},
  "note": "“Also recorded” adds a separate entry of the source. Marks after values point to notes of the source that are not given here.",
  "data": [
    {"compound": "CCCC(=O)O", "note": "[Butyric acid]", "values": [
      {"measurement": "biofilm formation with 1% and 0.5% of fatty acid", "setting": "[1]", "value": "same results; also recorded: significant decrease"},
      {"measurement": "O.D.570 nm of pre-established biofilms (biofilm formation)", "setting": "[2]", "value": "0.490±0.121"},
      {"measurement": "killing capacity of clarithromycin", "setting": "[3]", "value": "increase"},
      {"measurement": "CFU/ml at 14 days", "setting": "[3]", "value": "3.4 +/− 0.6 × 10^6* (1) CFU/ml"},
      {"measurement": "O.D.570 nm of sessile MAH104 (crystal violet, biofilm formation)", "setting": "sessile MAH104 cells", "value": "0.32±0.02"},
      {"measurement": "growth of sessile forms", "setting": "sessile MAH104 cells", "value": "supported the growth of sessile forms"},
      {"measurement": "growth of planktonic MAH104 in non-supplemented 7H9", "setting": "[4]", "value": "able to grow"}
    ]},
    {"compound": "OCC(O)CO", "note": "[Glycerol]", "values": [
      {"measurement": "increase in biofilm formation in comparison with non-supplemented 7H9", "setting": "[1]; glycerol 0.2%, 7 days", "value": 3.2, "unit": "×"},
      {"measurement": "O.D.570 nm of pre-established biofilms (biofilm formation)", "setting": "[2]", "value": "1.562±0.1751"},
      {"measurement": "O.D.595 nm of pre-established biofilm cultures", "setting": "[2]; after 24 hours of culture, 7H9 media 0.452±0.049", "value": "0.609±0.069"},
      {"measurement": "killing capacity of clarithromycin", "setting": "[3]", "value": "increase"},
      {"measurement": "CFU/ml at 14 days", "setting": "[3]", "value": "1.1 +/− 0.3 × 10^9* CFU/ml"},
      {"measurement": "growth of sessile forms", "setting": "sessile MAH104 cells", "value": "supported the growth of sessile forms"},
      {"measurement": "growth of planktonic MAH104 in non-supplemented 7H9", "setting": "[4]", "value": "able to support MAH104 growth"}
    ]},
    {"compound": "CCC(=O)O", "note": "[Propionic acid]", "values": [
      {"measurement": "biofilm formation with 1% and 0.5% of fatty acid", "setting": "[1]", "value": "unable to form biofilm; also recorded: significant decrease"},
      {"measurement": "O.D.570 nm of pre-established biofilms (biofilm formation)", "setting": "[2]", "value": "0.3855±0.048"},
      {"measurement": "killing capacity of clarithromycin", "setting": "[3]", "value": "increase"},
      {"measurement": "CFU/ml at 14 days", "setting": "[3]", "value": "5.5 +/− 0.4 × 10^6*(1) CFU/ml"},
      {"measurement": "O.D.570 nm of sessile MAH104 (crystal violet, biofilm formation)", "setting": "sessile MAH104 cells", "value": "0.25±0.01"},
      {"measurement": "growth of sessile forms", "setting": "sessile MAH104 cells", "value": "supported the growth of sessile forms"},
      {"measurement": "growth of planktonic MAH104 in non-supplemented 7H9", "setting": "[4]", "value": "able to grow"}
    ]}
  ]
}
